Like-named read-outs stand apart in the source and are kept apart here. Square brackets hold non-standard residues; d marks the D form. Ends that are not written are not given here. Peptide text beside a SMILES is read from it. Phe(4-NH2) = Nc1ccc(C[C@H](N)C(=O)O)cc1; pGlu = O=C1CC[C@@H](C(=O)O)N1; Dab = NCC[C@H](N)C(=O)O

Data set [1] can be described thus: Serum stability, anti-fungal activity after serum incubation by radial diffusion bioassay. It is filed as in vitro ADME, rat or human serum. As to conditions: Activity in Serum t ½ (hr.). The method, then: For these serum stability experiments, peptides were prepared by solid phase peptide sythesis and purified to 94% or greater purity as described in Example 1. Blood was collected from metaphane anesthesized rats by aortic bleed into Vacutainer™ tubes and allowed to clot at room temperature for approximately 30 minutes, then centrifuged at 3000 rpm (about 1000×g) for 10 minutes at room temperature and the serum aspirated. In addition, frozen human serum (North American Biologics, Inc., Miami, Fla., cat. no. 2140, lot no. 94115) was thawed at room temperature and filtered through a 0.45 μm membrane before use.
A 1 mg/mL solution of an exemplary XMP peptide to be tested was added to an equal volume of either rat or human serum described above and maintained at 37° C. At 0, 1, 2, and 4 hours, 100 μL were removed and processed by solid phase extraction for HPLC analysis as follows. Serum samples were prepared for HPLC using C-18 Sep-Pak cartridges (1 mL cartridge with 100 mg of sorbent, Waters Corp., Milford, Mass.). One hundred μL of serum sample were added to an equal volume of 1% TFA and mixed for 30 seconds on a Vortex mixer. The sample was then applied to a C-18 Sep-Pak cartridge that had been conditioned by washing with 1 mL of methanol followed by 1 mL Milli-Q water. Weakly reed components were eluted by washing with 1 mL of 0. 1% TFA. The bound peptide was eluted with two volumes of 250 μL 80% acetonitrile/0.065% TFA.
The peptides identified and purified after serum incubation as described above were subjected to N-terminal peptide sequencing performed on an Applied Biosystems Model 477A/120A sequencer and to electrospray ionization mass spectrometry (ESI/MS) performed using a VG Biotech Bio-Q Mass Spectrometer. In addition, the peptides identified and purified after serum incubation as described above were also tested for their anti-fungal activity in a radial diffusion bioassay with Candida albicans SLU-1 strain as described in Example 2.

Data set [2] deals with C. albicans (CA-1, Strain SLU-1). Put plainly: Radial diffusion assay. It is filed as cell-based, Candida albicans. The note with it: pmoles of peptide added to well to achieve a 30 mm^2 zone, PROBIT analysis, crude or purified (P′) peptide. In a few lines:
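Yeast at 1×10^6 CFU/mL in agarose underlayer (3% Sabouraud, 10 mM sodium phosphate pH 7.4); 2-fold peptide dilutions in D-PBS from ~1 mg/mL loaded into wells, 3 h at 37° C, then nutrient overlayer overnight. Value: pmol/well giving 30 mm^2 net clear zone, by PROBIT regression.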

For the next data set, the system named is mouse RAW 264.7 cells. The method, then:
(§1) An in vitro LPS neutralization screening assay for evaluation of Domain III derived peptides was developed (as described in co-owned and co-pending U.S. patent application Ser. No. 08/306,473) which provides both a measure of efficacy of each peptide (EC50) and of the toxicity/growth inhibition of each peptide (IC50).
(§2) The cells were counted and their concentration adjusted to 2×10^5 cells/mL and 100 μL aliquots were added to each well of a 96-well microtitre plate. […] This incubation was performed in the absence or presence of peptides in varying concentrations between 25 ng/mL and 50 μg/mL. […] Cell proliferation was quantitatively measured by the addition of 1 μCi/well [^3H]-thymidine 5 hours after the time of initiation of the assay. After the 15-hour incubation, labeled cells were harvested onto glass fiber filters with a cell harvester (Inotech Biosystems, INB-384, Sample Processing and Filter Counting System, Lansing, Mich.).

For data set [3], the system named is mouse RAW 264.7 cells incubated with E. coli O113 LPS. As to conditions: RAW 264.7 cells with E. coli O113 LPS; concentration reversing LPS growth inhibition by 50%. The method, then: as §1, §2
Where [4] appears, read: RAW 264.7 cell growth inhibited by 50%.

`CC[C@H](C)[C@H](NC(=O)[C@H](CC(C)C)NC(=O)[C@H](Cc1ccc(N)cc1)NC(=O)CNC(=O)[C@@H](NC(=O)[C@H](CCCCN)NC(=O)[C@H](CO)NC(=O)[C@@H](N)CCCCN)C(C)C)C(=O)N[C@@H](CCC(N)=O)C(=O)N[C@@H](CC(C)C)C(=O)N[C@@H](Cc1ccccc1)C(=O)N[C@@H](Cc1c[nH]cn1)C(=O)N[C@@H](CCCCN)C(=O)N[C@@H](CCCCN)C(N)=O` [XMP.133] (H-KSKVG[Phe(4-NH2)]LIQLFHKK-NH2) had a half-life at 0.5 mg/mL in data set [1] of 14 h. For the same compound, in data set [2], the “C. albicans pmol/30 mm^2 zone” value is 284 pmol/30 mm^2 zone.
In turn, `CC[C@H](C)[C@H](NC(=O)[C@H](CC(C)C)NC(=O)[C@H](Cc1c[nH]c2ccccc12)NC(=O)[C@H](CCCN)NC(=O)[C@@H](N)CCCN)C(=O)N[C@@H](CCC(N)=O)C(=O)N[C@@H](CC(C)C)C(=O)N[C@@H](CCCN)C(=O)N[C@@H](CCCN)C(N)=O` [XMP.338] showed a half-life at 0.5 mg/mL in data set [1] of 4.7 h. Further, the “C. albicans pmol/30 mm^2 zone” value in data set [2] is 1,194 pmol/30 mm^2 zone.
`CC[C@H](C)[C@H](NC(=O)[C@H](CC(C)C)NC(=O)[C@H](Cc1c[nH]c2ccccc12)NC(=O)[C@@H](N)CCCCN)C(=O)N[C@@H](CCN)C(=O)N[C@@H](CC(C)C)C(=O)N[C@@H](Cc1ccccc1)C(=O)N[C@@H](Cc1c[nH]cn1)C(=O)N[C@@H](CCCCN)C(=O)N[C@@H](CCCCN)C(N)=O` [XMP.371] (H-KWLI[Dab]LFHKK-NH2) gave a half-life at 0.5 mg/mL in data set [1] of 0.9 h. Moreover, the “C. albicans pmol/30 mm^2 zone” value came to 843 pmol/30 mm^2 zone in data set [2] and 523 pmol/30 mm^2 zone in data set [2] (listed as XMP.371P′).
Regarding Ac-PWLIQLFHKK-NH2 [XMP.356], the half-life at 0.5 mg/mL in data set [1] was 0.9 h. In data set [2], the “C. albicans pmol/30 mm^2 zone” value was determined as 550 pmol/30 mm^2 zone.
H-KKKWAIQLKK-NH2 [XMP.377]: in data set [1], the half-life at 0.5 mg/mL is 1.8 h. For the same compound, the “C. albicans pmol/30 mm^2 zone” value in data set [2] worked out at 146 pmol/30 mm^2 zone.
The matching figures for H-KKKWLIQLKK-NH2 [XMP.348]: 5.5 h and 284 pmol/30 mm^2 zone.
The matching figures for H-KKLLLLLKK-NH2 [XMP.385]: 2.7 h and 127 pmol/30 mm^2 zone.
For the compound H-KKLLQLLKK-NH2 [XMP.382P], the “IC50 (toxicity/growth inhibition of peptide)” value in the data set on mouse RAW 264.7 cells (setting [4]) is listed as “NA (NA for IC50 means no evidence of decreased RAW cell growth at up to 50 μg/ml)”. For the same compound, in data set [3], the “In Vitro LPS Neutralization EC50” value is given as “NA (NA for EC50 means no evidence neutralization of LPS at up to 50 μg/ml)”.
The matching figures for H-KKLQLLLKK-NH2 [XMP.381P]: “NA (NA for IC50 means no evidence of decreased RAW cell growth at up to 50 μg/ml)” and “NA (NA for EC50 means no evidence neutralization of LPS at up to 50 μg/ml)”.
With H-KKLQLLLKK-NH2 [XMP.381], the half-life at 0.5 mg/mL in data set [1] is 0.8 h. The “C. albicans pmol/30 mm^2 zone” value in data set [2] came out at 391 pmol/30 mm^2 zone.
H-KKQLLLLKK-NH2 [XMP.380P]: in the data set with mouse RAW 264.7 cells (setting [4]), the “IC50 (toxicity/growth inhibition of peptide)” value is “NA (NA for IC50 means no evidence of decreased RAW cell growth at up to 50 μg/ml)”. Further, the “In Vitro LPS Neutralization EC50” value in data set [3] is listed as “NA (NA for EC50 means no evidence neutralization of LPS at up to 50 μg/ml)”.
Take H-KKWLIQAKK-NH2 [XMP.345P]: the “IC50 (toxicity/growth inhibition of peptide)” value with mouse RAW 264.7 cells (setting [4]) is “NA (NA for IC50 means no evidence of decreased RAW cell growth at up to 50 μg/ml)”. Also, in data set [3], the “In Vitro LPS Neutralization EC50” value is over 50 µg/mL.
The matching figures for H-KKWLIQLFHKK-NH2 [XMP.352P]: “NA (NA for IC50 means no evidence of decreased RAW cell growth at up to 50 μg/ml)” and 2.34 ± 0.38 µg/mL.
With H-KKWLIQLFHKP-NH2 [XMP.358], the half-life at 0.5 mg/mL in data set [1] was 1.6 h. Moreover, in data set [2], the “C. albicans pmol/30 mm^2 zone” value is 550 pmol/30 mm^2 zone.
On to H-KPWLIQLFHKK-NH2 [XMP.390P], for which the “IC50 (toxicity/growth inhibition of peptide)” value in the data set with mouse RAW 264.7 cells (setting [4]) is given as “NA (NA for IC50 means no evidence of decreased RAW cell growth at up to 50 μg/ml)”. In addition, in data set [3], the “In Vitro LPS Neutralization EC50” value came to 3.97 ± 0.21 µg/mL.
The matching figures for H-KSKVPWLIQLFHKK-NH2 [XMP.393P]: “NA (NA for IC50 means no evidence of decreased RAW cell growth at up to 50 μg/ml)” and over 25 µg/mL.
For the compound H-KVKWLIQLF-NH2 [XMP.295P], the “IC50 (toxicity/growth inhibition of peptide)” value with mouse RAW 264.7 cells was over 25 µg/mL. The “In Vitro LPS Neutralization EC50” value in data set [3] came to 3.69 ± 0.12 µg/mL.
The matching figures for H-KVKWLIQLFHK-NH2 [XMP.288P]: over 25 µg/mL and 0.87 ± 0.06 µg/mL.
Take H-KVPWLIQLFHKK-NH2 [XMP.392P]: the “IC50 (toxicity/growth inhibition of peptide)” value in the data set with mouse RAW 264.7 cells (setting [4]) is “NA (NA for IC50 means no evidence of decreased RAW cell growth at up to 50 μg/ml)”. Further, in data set [3], the “In Vitro LPS Neutralization EC50” value was 24.03 ± 2.67 µg/mL.
The matching figures for H-PWLIQLFHKK-NH2 [XMP.355P]: “NA (NA for IC50 means no evidence of decreased RAW cell growth at up to 50 μg/ml)” and 1.08 ± 0.05 µg/mL.
In the case of H-RRWLIQLRR-NH2 [XMP.336P], the “IC50 (toxicity/growth inhibition of peptide)” value in the data set on mouse RAW 264.7 cells (setting [4]) is on record as “NA (NA for IC50 means no evidence of decreased RAW cell growth at up to 50 μg/ml)”. The “In Vitro LPS Neutralization EC50” value in data set [3] was “NA (NA for EC50 means no evidence neutralization of LPS at up to 50 μg/ml)”.
In the case of H-SKWAIQLKK-NH2 [XMP.409P], in the data set on mouse RAW 264.7 cells (setting [4]), the “IC50 (toxicity/growth inhibition of peptide)” value is on record as “NA (NA for IC50 means no evidence of decreased RAW cell growth at up to 50 μg/ml)”. For the same compound, the “In Vitro LPS Neutralization EC50” value in data set [3] is “NA (NA for EC50 means no evidence neutralization of LPS at up to 50 μg/ml)”.
The matching figures for KKKWAIQLKK-NH2 [XMP.377P]: “NA (NA for IC50 means no evidence of decreased RAW cell growth at up to 50 μg/ml)” and “NA (NA for EC50 means no evidence neutralization of LPS at up to 50 μg/ml)”.
The matching figures for KKLLLLQKK-NH2 [XMP.384P]: “NA (NA for IC50 means no evidence of decreased RAW cell growth at up to 50 μg/ml)” and “NA (NA for EC50 means no evidence neutralization of LPS at up to 50 μg/ml)”.
The matching figures for “KKPWAIQLKK-NH2 (C-terminus assumed) [XMP.379P]”: “NA (NA for IC50 means no evidence of decreased RAW cell growth at up to 50 μg/ml)” and “NA (NA for EC50 means no evidence neutralization of LPS at up to 50 μg/ml)”.
On to “KKWAIQLKK-NH2 (C-terminus assumed) [XMP.344P]”, for which, in the data set with mouse RAW 264.7 cells (setting [4]), the “IC50 (toxicity/growth inhibition of peptide)” value is listed as “NA (NA for IC50 means no evidence of decreased RAW cell growth at up to 50 μg/ml)”. Besides, the “In Vitro LPS Neutralization EC50” value in data set [3] was over 25 µg/mL.
As to KKWLIQLFKK-NH2 [XMP.351P], the “IC50 (toxicity/growth inhibition of peptide)” value in the data set with mouse RAW 264.7 cells (setting [4]) is given as “NA (NA for IC50 means no evidence of decreased RAW cell growth at up to 50 μg/ml)”. Also, the “In Vitro LPS Neutralization EC50” value in data set [3] came to 8.47 ± 0.71 µg/mL.
The matching figures for KWAIQLFHKK-NH2 [XMP.386P]: “NA (NA for IC50 means no evidence of decreased RAW cell growth at up to 50 μg/ml)” and 9.75 ± 1.02 µg/mL.
The matching figures for “PWAIQLFHKK-NH2 (C-terminus assumed) [XMP.387P]”: “NA (NA for IC50 means no evidence of decreased RAW cell growth at up to 50 μg/ml)” and 15.53 ± 2.18 µg/mL.
The matching figures for “XMP.341P ([pGlu][pGlu]WLIQL[pGlu][pGlu]; not fully specified)”: “NA/NA (NA for IC50 means no evidence of decreased RAW cell growth at up to 50 μg/ml)” and over 50 µg⁻¹ mL⁻¹.

The values are drawn from patent US6664231B1, “Anti-fungal peptides” (priority 1993, dated 2003).
